{
  "source": "ChEMBL document CHEMBL5046228",
  "about": "(Eur J Med Chem, 2022)",
  "key": {"[1]": {"target": "Epidermal growth factor receptor (Homo sapiens, UniProt P00533, EX19DEL)", "sequence (P00533 whole entry, looked up, stated change not applied)": "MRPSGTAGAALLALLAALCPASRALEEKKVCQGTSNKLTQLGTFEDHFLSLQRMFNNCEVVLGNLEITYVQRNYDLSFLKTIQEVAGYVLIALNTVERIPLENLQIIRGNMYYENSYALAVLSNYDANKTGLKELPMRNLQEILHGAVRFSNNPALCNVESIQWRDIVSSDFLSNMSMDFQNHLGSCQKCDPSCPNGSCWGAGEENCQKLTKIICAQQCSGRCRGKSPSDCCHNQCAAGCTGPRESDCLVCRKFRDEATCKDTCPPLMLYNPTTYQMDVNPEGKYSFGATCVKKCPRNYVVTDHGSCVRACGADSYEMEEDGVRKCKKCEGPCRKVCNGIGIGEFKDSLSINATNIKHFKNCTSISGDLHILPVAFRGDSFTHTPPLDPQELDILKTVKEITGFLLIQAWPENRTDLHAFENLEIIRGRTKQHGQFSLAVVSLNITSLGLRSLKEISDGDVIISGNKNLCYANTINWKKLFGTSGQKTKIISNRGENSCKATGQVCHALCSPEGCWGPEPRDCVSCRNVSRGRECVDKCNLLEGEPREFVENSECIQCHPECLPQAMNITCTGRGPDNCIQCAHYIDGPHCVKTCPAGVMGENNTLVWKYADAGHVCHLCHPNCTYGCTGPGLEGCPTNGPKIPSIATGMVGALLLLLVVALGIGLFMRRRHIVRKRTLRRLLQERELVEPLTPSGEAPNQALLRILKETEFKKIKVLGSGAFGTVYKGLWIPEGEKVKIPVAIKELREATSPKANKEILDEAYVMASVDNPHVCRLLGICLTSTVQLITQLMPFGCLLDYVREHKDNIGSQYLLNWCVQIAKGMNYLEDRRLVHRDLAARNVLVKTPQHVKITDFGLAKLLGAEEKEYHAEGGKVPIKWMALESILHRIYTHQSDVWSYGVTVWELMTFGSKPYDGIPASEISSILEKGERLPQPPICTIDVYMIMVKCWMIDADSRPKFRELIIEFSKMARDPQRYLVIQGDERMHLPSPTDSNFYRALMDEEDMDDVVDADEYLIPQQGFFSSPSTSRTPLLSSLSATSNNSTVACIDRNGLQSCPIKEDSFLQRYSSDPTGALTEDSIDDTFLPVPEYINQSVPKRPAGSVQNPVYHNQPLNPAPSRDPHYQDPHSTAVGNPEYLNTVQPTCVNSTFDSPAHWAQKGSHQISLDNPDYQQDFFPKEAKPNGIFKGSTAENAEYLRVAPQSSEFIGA", "assay": "Inhibition of EGFR del19 (unknown origin) using flurogenic substrate in presence of ATP by HTRF assay"}, "[2]": {"target": "Epidermal growth factor receptor (Homo sapiens, UniProt P00533, C797S/T790M)", "sequence (P00533 25-1210 T790M/C797S limits assumed)": "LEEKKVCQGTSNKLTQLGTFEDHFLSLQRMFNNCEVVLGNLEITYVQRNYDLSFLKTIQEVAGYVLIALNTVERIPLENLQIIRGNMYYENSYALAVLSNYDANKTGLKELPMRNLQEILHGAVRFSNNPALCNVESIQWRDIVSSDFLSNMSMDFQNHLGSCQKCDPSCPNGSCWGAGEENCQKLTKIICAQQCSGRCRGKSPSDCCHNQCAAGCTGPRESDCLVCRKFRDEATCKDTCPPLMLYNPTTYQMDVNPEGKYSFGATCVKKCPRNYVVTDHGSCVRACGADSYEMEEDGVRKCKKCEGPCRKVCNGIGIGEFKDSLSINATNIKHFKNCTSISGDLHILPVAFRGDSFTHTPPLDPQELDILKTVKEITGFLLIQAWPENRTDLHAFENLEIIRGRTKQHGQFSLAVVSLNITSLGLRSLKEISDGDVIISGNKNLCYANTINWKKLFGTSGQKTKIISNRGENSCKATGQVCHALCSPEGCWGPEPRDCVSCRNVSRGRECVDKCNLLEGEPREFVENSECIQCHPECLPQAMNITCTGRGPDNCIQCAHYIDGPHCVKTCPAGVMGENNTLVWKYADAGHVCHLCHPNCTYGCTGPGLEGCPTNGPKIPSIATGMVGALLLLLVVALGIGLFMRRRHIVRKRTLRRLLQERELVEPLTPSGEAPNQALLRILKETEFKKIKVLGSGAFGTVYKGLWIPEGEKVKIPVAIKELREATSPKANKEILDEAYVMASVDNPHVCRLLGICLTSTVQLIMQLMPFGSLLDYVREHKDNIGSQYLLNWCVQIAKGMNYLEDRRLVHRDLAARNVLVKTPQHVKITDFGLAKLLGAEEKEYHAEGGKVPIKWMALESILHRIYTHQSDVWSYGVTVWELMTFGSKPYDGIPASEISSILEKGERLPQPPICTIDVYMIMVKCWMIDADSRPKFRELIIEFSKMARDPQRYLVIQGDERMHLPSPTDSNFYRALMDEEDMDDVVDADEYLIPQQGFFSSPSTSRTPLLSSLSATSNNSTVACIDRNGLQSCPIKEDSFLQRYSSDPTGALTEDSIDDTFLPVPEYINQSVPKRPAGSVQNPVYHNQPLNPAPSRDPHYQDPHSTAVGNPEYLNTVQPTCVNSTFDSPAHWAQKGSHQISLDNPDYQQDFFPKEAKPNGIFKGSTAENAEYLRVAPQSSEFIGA", "assay": "Inhibition of EGFR T790M/C797S double mutant (unknown origin) using flurogenic substrate in presence of ATP by HTRF assay"}, "[3]": {"system": "HCC827", "assay": "Antiproliferative activity against human HCC827 cells expressing EGFR del119 mutant assessed as inhibition in cell viability after 72 hrs by CCK8 assay", "assay_type": "functional, cell-based", "settings": "HCC827, 72 h"}, "[4]": {"system": "A549", "assay": "Antiproliferative activity against human A549 cells expressing wild type EGFR assessed as inhibition in cell viability after 72 hrs by CCK8 assay", "assay_type": "functional, cell-based", "settings": "A549, 72 h"}, "[5]": {"system": "NCI-H1299", "assay": "Antiproliferative activity against human NCI-H1299 cells expressing wild type EGFR assessed as inhibition in cell viability after 72 hrs by CCK8 assay", "assay_type": "functional, cell-based", "settings": "NCI-H1299, 72 h"}, "[6]": {"system": "NCI-H1299", "assay": "Induction of cell cycle arrest in human NCI-H1299 cells assessed as accumulation at G2/M phase at 0.02 uM after 36 hrs by PI staining based flow cytometry analysis (reference value: 5.6%)", "assay_type": "functional"}, "[7]": {"system": "NCI-H1299", "assay": "Induction of cell cycle arrest in human NCI-H1299 cells assessed as accumulation at G0/G1 phase at 0.5 uM after 36 hrs by PI staining based flow cytometry analysis (reference value: 70.2%)", "assay_type": "functional"}, "[8]": {"system": "NCI-H1299", "assay": "Induction of cell cycle arrest in human NCI-H1299 cells assessed as accumulation at S phase at 0.5 uM after 36 hrs by PI staining based flow cytometry analysis (reference value: 24.8%)", "assay_type": "functional"}, "[9]": {"system": "NCI-H1299", "assay": "Induction of cell cycle arrest in human NCI-H1299 cells assessed as accumulation at G2/M phase at 2.5 uM after 36 hrs by PI staining based flow cytometry analysis (reference value: 5.6%)", "assay_type": "functional"}, "[10]": {"system": "NCI-H1975", "assay": "Induction of cell cycle arrest in human NCI-H1975 cells assessed as accumulation at G0/G1 phase at 0.02 uM after 36 hrs by PI staining based flow cytometry analysis (reference value: 24.2%)", "assay_type": "functional"}, "[11]": {"system": "NCI-H1975", "assay": "Induction of cell cycle arrest in human NCI-H1975 cells assessed as accumulation at G2/M phase at 0.02 uM after 36 hrs by PI staining based flow cytometry analysis (reference value: 43.1%)", "assay_type": "functional"}, "[12]": {"system": "NCI-H1975", "assay": "Induction of cell cycle arrest in human NCI-H1975 cells assessed as accumulation at G0/G1 phase at 0.5 uM after 36 hrs by PI staining based flow cytometry analysis (reference value: 24.2%)", "assay_type": "functional"}, "[13]": {"system": "NCI-H1975", "assay": "Induction of cell cycle arrest in human NCI-H1975 cells assessed as accumulation at G0/G1 phase at 2.5 uM after 36 hrs by PI staining based flow cytometry analysis (reference value: 24.2%)", "assay_type": "functional"}, "[14]": {"system": "NCI-H1975", "assay": "Induction of cell cycle arrest in human NCI-H1975 cells assessed as accumulation at G2/M phase at 2.5 uM after 36 hrs by PI staining based flow cytometry analysis (reference value: 43.1%)", "assay_type": "functional"}, "[15]": {"system": "NCI-H1299", "assay": "Induction of apoptosis in human NCI-H1299 cells assessed as increase in viable cells at 0.02 uM after 36 hrs by annexin-V-FITC/PI staining based flow cytometric analysis (reference value: 94.1%)", "assay_type": "functional"}, "[16]": {"system": "NCI-H1299", "assay": "Induction of apoptosis in human NCI-H1299 cells assessed as increase in necrotic cells at 0.02 uM after 36 hrs by annexin-V-FITC/PI staining based flow cytometric analysis (reference value: 0.75%)", "assay_type": "functional"}, "[17]": {"system": "NCI-H1299", "assay": "Induction of apoptosis in human NCI-H1299 cells assessed as increase in early apoptotic cells at 0.1 uM after 36 hrs by annexin-V-FITC/PI staining based flow cytometric analysis (reference value: 0.79%)", "assay_type": "functional"}, "[18]": {"system": "NCI-H1299", "assay": "Induction of apoptosis in human NCI-H1299 cells assessed as increase in early apoptotic cells at 0.5 uM after 36 hrs by annexin-V-FITC/PI staining based flow cytometric analysis (reference value: 0.79%)", "assay_type": "functional"}, "[19]": {"system": "NCI-H1299", "assay": "Induction of apoptosis in human NCI-H1299 cells assessed as increase in late apoptotic cells at 0.5 uM after 36 hrs by annexin-V-FITC/PI staining based flow cytometric analysis (reference value: 4.39%)", "assay_type": "functional"}, "[20]": {"system": "NCI-H1299", "assay": "Induction of apoptosis in human NCI-H1299 cells assessed as increase in viable cells at 2.5 uM after 36 hrs by annexin-V-FITC/PI staining based flow cytometric analysis (reference value: 94.1%)", "assay_type": "functional"}, "[21]": {"system": "NCI-H1299", "assay": "Induction of apoptosis in human NCI-H1299 cells assessed as increase in early apoptotic cells at 2.5 uM after 36 hrs by annexin-V-FITC/PI staining based flow cytometric analysis (reference value: 0.79%)", "assay_type": "functional"}, "[22]": {"system": "NCI-H1975", "assay": "Induction of apoptosis in human NCI-H1975 cells assessed as increase in early apoptotic cells at 0.02 uM after 36 hrs by annexin-V-FITC/PI staining based flow cytometric analysis (reference value: 1.24%)", "assay_type": "functional"}, "[23]": {"system": "NCI-H1975", "assay": "Induction of apoptosis in human NCI-H1975 cells assessed as increase in late apoptotic cells at 0.02 uM after 36 hrs by annexin-V-FITC/PI staining based flow cytometric analysis (reference value: 3.85%)", "assay_type": "functional"}, "[24]": {"system": "NCI-H1975", "assay": "Induction of apoptosis in human NCI-H1975 cells assessed as increase in late apoptotic cells at 0.1 uM after 36 hrs by annexin-V-FITC/PI staining based flow cytometric analysis (reference value: 3.85%)", "assay_type": "functional"}, "[25]": {"system": "NCI-H1975", "assay": "Induction of apoptosis in human NCI-H1975 cells assessed as increase in necrotic cells at 0.1 uM after 36 hrs by annexin-V-FITC/PI staining based flow cytometric analysis (reference value: 0.35%)", "assay_type": "functional"}, "[26]": {"system": "NCI-H1975", "assay": "Induction of apoptosis in human NCI-H1975 cells assessed as increase in viable cells at 0.5 uM after 36 hrs by annexin-V-FITC/PI staining based flow cytometric analysis (reference value: 94.6%)", "assay_type": "functional"}, "[27]": {"system": "NCI-H1975", "assay": "Induction of apoptosis in human NCI-H1975 cells assessed as increase in early apoptotic cells at 0.5 uM after 36 hrs by annexin-V-FITC/PI staining based flow cytometric analysis (reference value: 1.24%)", "assay_type": "functional"}, "[28]": {"system": "NCI-H1975", "assay": "Induction of apoptosis in human NCI-H1975 cells assessed as increase in necrotic cells at 0.5 uM after 36 hrs by annexin-V-FITC/PI staining based flow cytometric analysis (reference value: 0.35%)", "assay_type": "functional"}, "[29]": {"system": "NCI-H1975", "assay": "Induction of apoptosis in human NCI-H1975 cells assessed as increase in viable cells at 2.5 uM after 36 hrs by annexin-V-FITC/PI staining based flow cytometric analysis (reference value: 94.6%)", "assay_type": "functional"}, "[30]": {"system": "NCI-H1975", "assay": "Induction of apoptosis in human NCI-H1975 cells assessed as increase in early apoptotic cells at 2.5 uM after 36 hrs by annexin-V-FITC/PI staining based flow cytometric analysis (reference value: 1.24%)", "assay_type": "functional"}, "[31]": {"system": "NCI-H1975", "assay": "Induction of apoptosis in human NCI-H1975 cells assessed as increase in necrotic cells at 2.5 uM after 36 hrs by annexin-V-FITC/PI staining based flow cytometric analysis (reference value: 0.35%)", "assay_type": "functional"}, "[32]": {"assay": "in vitro", "settings": "human"}},
  "data": [
    {"molecule": "C#CCN(C)CCN(C)c1cc(OC)c(Nc2nccc(Nc3cn(C)c4ccccc34)n2)cc1NC(=O)C=C", "values": [
      {"measurement": "IC50", "setting": "[1]", "result": 9.57, "unit": "nM"},
      {"measurement": "IC50", "setting": "[2]", "result": 4.01, "unit": "nM"},
      {"measurement": "IC50", "setting": "[3]", "result": 3.63, "unit": "nM"},
      {"measurement": "IC50", "setting": "[4]", "result": "> 100000", "unit": "nM"},
      {"measurement": "IC50", "setting": "[5]", "result": "> 100000", "unit": "nM"},
      {"measurement": "Activity", "setting": "[6]", "result": 6.8, "unit": "%"},
      {"measurement": "Activity", "setting": "[7]", "result": 68.4, "unit": "%"},
      {"measurement": "Activity", "setting": "[8]", "result": 25.6, "unit": "%"},
      {"measurement": "Activity", "setting": "[9]", "result": 7.8, "unit": "%"},
      {"measurement": "Activity", "setting": "[10]", "result": 22.5, "unit": "%"},
      {"measurement": "Activity", "setting": "[11]", "result": 50.2, "unit": "%"},
      {"measurement": "Activity", "setting": "[12]", "result": 18.3, "unit": "%"},
      {"measurement": "Activity", "setting": "[13]", "result": 17, "unit": "%"},
      {"measurement": "Activity", "setting": "[14]", "result": 64.6, "unit": "%"},
      {"measurement": "Activity", "setting": "[15]", "result": 93.1, "unit": "%"},
      {"measurement": "Activity", "setting": "[16]", "result": 0.65, "unit": "%"},
      {"measurement": "Activity", "setting": "[17]", "result": 1.06, "unit": "%"},
      {"measurement": "Activity", "setting": "[18]", "result": 1.01, "unit": "%"},
      {"measurement": "Activity", "setting": "[19]", "result": 5.63, "unit": "%"},
      {"measurement": "Activity", "setting": "[20]", "result": 92.1, "unit": "%"},
      {"measurement": "Activity", "setting": "[21]", "result": 0.95, "unit": "%"},
      {"measurement": "Activity", "setting": "[22]", "result": 1.98, "unit": "%"},
      {"measurement": "Activity", "setting": "[23]", "result": 3.09, "unit": "%"},
      {"measurement": "Activity", "setting": "[24]", "result": 3.3, "unit": "%"},
      {"measurement": "Activity", "setting": "[25]", "result": 0.019, "unit": "%"},
      {"measurement": "Activity", "setting": "[26]", "result": 79.2, "unit": "%"},
      {"measurement": "Activity", "setting": "[27]", "result": 12.2, "unit": "%"},
      {"measurement": "Activity", "setting": "[28]", "result": 0.021, "unit": "%"},
      {"measurement": "Activity", "setting": "[29]", "result": 47.3, "unit": "%"},
      {"measurement": "Activity", "setting": "[30]", "result": 45.4, "unit": "%"},
      {"measurement": "Activity", "setting": "[31]", "result": 0.012, "unit": "%"},
      {"measurement": "selectivity ratio", "setting": "[32]", "result": 27500}
    ]}
  ]
}
